Reference: publication PMC2990605 (British Journal of Cancer, 2010)

Assays:
[1] = in vivo
Method: On day 21, samples were taken until 8 h post-dose; the day 22 predose sample was used as the 24 h sample of day 21. […] Peak plasma concentrations (Cmax), overall drug exposure (AUC), and terminal plasma half-life (t½) were calculated using noncompartmental methods using WinNonlin Professional software (version 4.1, Pharsight Corporation, St Louis, MO, USA). Pharmacokinetics analysis, with reference to possible interactions, was descriptive.

[2] = test system: intracellular aminopeptidases; conditions: cited from earlier work
[3] = parameters: method as in Talmadge et al, 1986; Ichinose et al, 2003; conditions: ref Talmadge et al, 1986; Ichinose et al, 2003; cited from earlier work

| SMILES | overall exposure versus dose [1] | inhibition of intracellular aminopeptidases [2] | immunostimulatory activity [3] |
| --- | --- | --- | --- |
| CC(C)C[C@@H](C(=O)N[C@H](C(=O)O)c1ccccc1)[C@H](O)C(=O)NO [CHR-79888] | increased in a dose proportional manner | potent inhibitor |  |
| CC(C)C[C@H](NC(=O)[C@@H](O)[C@H](N)Cc1ccccc1)C(=O)O [bestatin] |  |  | immunostimulatory activity has been described |
